Source: PMC12088962, “Design, synthesis, and biological investigation of new thiazole-based derivatives as multi-targeted inhibitors endowed with antiproliferative, antioxidant, and antibacterial properties” (Frontiers in Chemistry, 2025)
≈ marks a conversion by molar mass, not a printed value.

Key:
S. aureus = assay: MIC by twofold serial dilution; format: cell-based, Staphylococcus aureus (ATCC 12600); settings: Gram-positive; for MIC: Staphylococcus aureus, read-out: Minimum inhibitory concentration (MIC), S. aureus
Experimental: (§1) The antibacterial efficacy of compounds 11b, 11e, and 12b was evaluated against Gram-positive bacteria (S. aureus and B. subtilis) and Gram-negative bacteria (E. coli and P. aeruginosa). Table 5 presents the MICs (nM) of these compounds against the evaluated bacteria, utilizing ciprofloxacin as the reference drug, determined through a twofold serial dilution approach on a 96-well microtiter plate ([Frejat F. O. et al., 2022]).
as §1, with “The” for “Table 5 presents the”, “the tested” for “these”, “bacteria were” for “bacteria, utilizing ciprofloxacin as the reference drug,”, “2022]). See Appendix A for more details.” for “2022]).”
(§2) 4.2. Antimicrobial activity
(§3) 4.2.1. Organisms and culture conditions […]
(§4) 4.2.2. Minimum inhibitory concentration assay
(§5) In 96-well microtiter plates and […] of fresh bacterial culture of a single McFarland unit overnight, a double serial dilution of each compound […] in sterile standard saline were prepared to every single source well. Ciprofloxacin antibiotic (5 mg / mL-1) and normal saline were included as standard reference in each assay. The plates were incubated at 37 0C overnight.
(§6) As an indicator of bacterial growth, […] of p -iodonitrotetrazolium violet (INT) was added to each well and incubated at 37 0C for 30 min. MIC values are recorded as the lowest concentration […]
(§7) tetrazolidium salt acts as an electron accepter and is reduced to a red colored formazan product by biological activity organisms. Where bacterial growth was inhibited, the solution in the well remained clear after incubation with INT. […]

P. aeruginosa = assay: MIC by twofold serial dilution; format: cell-based, Pseudomonas aeuroginosa (ATCC 10145); settings: Gram-negative; for MIC: Pseudomonas aeruginosa, read-out: Minimum inhibitory concentration (MIC), P. aeruginosa
Experimental: as §1
as §1, with “The” for “Table 5 presents the”, “the tested” for “these”, “bacteria were” for “bacteria, utilizing ciprofloxacin as the reference drug,”, “2022]). See Appendix A for more details.” for “2022]).”
as §2, §3, §4, §5, §6, §7

E. coli = assay: MIC by twofold serial dilution; format: cell-based, Escherichia coli (ATCC 11775); settings: Gram-negative; for MIC: Escherichia coli, read-out: Minimum inhibitory concentration (MIC), E. coli
Experimental: as §1
as §1, with “The” for “Table 5 presents the”, “the tested” for “these”, “bacteria were” for “bacteria, utilizing ciprofloxacin as the reference drug,”, “2022]). See Appendix A for more details.” for “2022]).”
as §2, §3, §4, §5, §6, §7

B. subtilis = assay: MIC by twofold serial dilution; format: cell-based, Bacillus subtilis (ATCC 6051); settings: for MIC: Bacillus subtilis, read-out: Minimum inhibitory concentration (MIC), B. subtilis; for MIC / Minimum inhibitory concentration (MIC), B. subtilis: Gram-positive
Experimental: as §1
as §1, with “The” for “Table 5 presents the”, “the tested” for “these”, “bacteria were” for “bacteria, utilizing ciprofloxacin as the reference drug,”, “2022]). See Appendix A for more details.” for “2022]).”
as §2, §3, §4, §5, §6, §7

[1] = system: four cancer cell lines (A-549, MCF-7, Panc-1, HT-29); assay: Antiproliferative MTT assay, average over four cancer cell lines; settings: for GI50: Homo sapiens, read-out: Antiproliferative activity, Average (GI50)
Excerpt: (§8) Dose-response assays determined the IC50 values for the novel compounds. We derived the reported data from a minimum of two separate experiments, each consisting of three repetitions per concentration.
Assay for antiproliferative effect

VEGFR-2 = VEGFR-2 (Homo sapiens, UniProt P35968); assay: VEGFR-2 inhibitory assay
Experimental: The outcomes are presented as IC50 values.
(§9) was added to each well followed by incubation of 1h and then washing of the plates using buffer.
(§10) The enhancement solution was added to each well and the signal was recorded at excitation and
(§11) The autophosphorylation percentage inhibition by compounds was calculated using the following equation:
Prepare all the solutions using autoclaved, deionized water and analytical grade reagents.
and store all the reagents at room temperature (unless indicated otherwise).
solution, add 5 mL ultra-pure water; 1×Kinase Assay Buffer: add 25 mL HEPES solution (1 M),
water, adjust pH to 7.5 and constant volume to 500 mL using ultrapure water; 4×Stop solution (40
mM): Mix 0.8 mL of the foregoing EDTA solution, 1 mL 10×Detection Buffer and 8.2 mL ultra-
pure water; 1×Detection Buffer: Mix 1 mL 10×Detection Buffer with 9 mL water; 4×VEGFR
μM) was added to 624 μL 1×Kinase Assay Buffer and mixed; 4×ULight™-labeled JAK1
(substrate) (200 nM, 25 times diluted): 24 μL ULight™-labeled JAK1 (mother liquor
concentration 5 μM) was added to 576 μL 1×Kinase Assay Buffer and mixed; 4×ATP Solution
(40 μM, 250 times diluted): add 3 μL ATP solution (10 mM) to 747 μL 1×Kinase Assay Buffer
2×substrate/ATP Mix: 560 μL foregoing 4×ULight™-labeled JAK1 and 560 μL 4×ATP solution
and mixed (prepared before use). The assays used an ULight-labeled peptide substrate and a
Europium-W1024-labeled antiphosphotyrosine antibody. The VEGFR-2 was purchased from
Carna Biosciences, Inc. (New York, USA). The 384-well plates were obtained from PerkinElmer.
5 μL 2×VEGFR-2 kinase solution (0.5 nM)
was added to 384-well plates homogeneous mixing and pre-reaction at room temperature for 30 min. Next, 2.5 μL 4×Ultra ULightTM-JAK-1(Tyr1023) Peptide (200 nM)/ATP (40 μM) was added to the corresponding wells of a 384-well plate. Negative control: 2.5 μL/well 4×substrate/ATP mixture and 7.5 μL 1×kinase assay buffer in 384-well plate well. Positive control:
μL/well 2×VEGFR-2 kinase solution was added to the 384-well plate, The final concentration of DMSO in the mixing system was 4%. After incubation at room temperature and dark for 60 min, 5 μL 4×stop solution was added to corresponding wells to react for 5 min and then 5 μL 4×detection mix was added to the corresponding wells of a 384-well plate. The mixture was centrifugally mixed and stayed for 60 min at room temperature for color development. The plate was read using a Envision plate reader. The inhibition rate (%) = (positive well reading-compound well reading)/(positive well reading-negative well reading)×100. The corresponding IC50 values were calculated using GraphPad Prism 5.0.

A-549 cells = assay: Antiproliferative MTT assay; settings: for IC50: Homo sapiens, A549, read-out: Antiproliferative activity IC50 ± SEM, A-549
Excerpt: as §8
Assay for antiproliferative effect

E. coli DNA gyrase = E. coli DNA gyrase (Escherichia coli, UniProt P0AES6); assay: DNA gyrase supercoiling assay; format: biochemical; settings: for remaining activity at 1 µM: read-out: RA (residual activity of the enzyme), E. Coli DNA gyrase
Experimental: 4.2.3. Determination of Inhibitory Activities on E. coli DNA Gyrase.
All the final compounds were tested for E. coli DNA gyrase inhibitory activity in a supercoiling assay. Activities were determined on streptavidin -coated 96-well microtiter plates from Thermo scientific Pierce. First, the plates were rehydrated with buffer (20 mM Tris -HCl with pH 7.6, 0.01% […]
immobilized. After washing off the unbound oligonucleotide, the enzyme test was performed. The reaction volume of 30 μL in buffer (35 mM Tris-HCl with pH 7.5, 4 mM MgCl 2, 24 mM KCl, 2 […]
1.5 U of DNA gyrase from E. coli or S. aureus, 0.75 μg of relaxed pNO1 plasmid, and 3 μL solution of the inhibitor in 1 0% DMSO and 0.008% Tween 20. Reaction solutions were incubated at 37 °C […]
for 30 min. After that, the TF buffer (50 mM NaOAc with pH 5.0, 50 mM NaCl and 50 mM MgCl2) was added to terminate the enzymatic reaction. After additional incubation for 30 min at rt, during which biotin-oligonucleotide-plasmid triplex was formed, the unbound plasmid was washed off using TF buffer and SybrGOLD in T10 buffer (10 mM Tris HCl wit h pH 8.0 and 1 mM EDTA) was added. The fluorescence was measured with a microplate reader (BioTek Synergy H4, excitation: 485 nm, emission: 535 nm). […]
tested compounds. GraphPad Prism software was used to calculate the IC50 values. The result is given as the average value of three independent measurements. […]

Panc-1 cells = assay: Antiproliferative MTT assay; settings: Homo sapiens, PANC-1, read-out: Antiproliferative activity IC50 ± SEM, Panc-1
Excerpt: as §8
Assay for antiproliferative effect

MCF-7 cells = assay: Antiproliferative MTT assay; settings: for IC50: Homo sapiens, MCF7, read-out: Antiproliferative activity IC50 ± SEM, MCF-7
Excerpt: as §8
Assay for antiproliferative effect

HT-29 cells = assay: Antiproliferative MTT assay; settings: Homo sapiens, HT-29, read-out: Antiproliferative activity IC50 ± SEM, HT-29
Excerpt: as §8
Assay for antiproliferative effect

in vitro = settings: human, MCF-10A mammary gland epithelial cells (normal cell line)
EGFR = EGFR (Homo sapiens, UniProt P00533); assay: EGFR-TK inhibitory assay
Chain of EGFR (P00533 669-1210): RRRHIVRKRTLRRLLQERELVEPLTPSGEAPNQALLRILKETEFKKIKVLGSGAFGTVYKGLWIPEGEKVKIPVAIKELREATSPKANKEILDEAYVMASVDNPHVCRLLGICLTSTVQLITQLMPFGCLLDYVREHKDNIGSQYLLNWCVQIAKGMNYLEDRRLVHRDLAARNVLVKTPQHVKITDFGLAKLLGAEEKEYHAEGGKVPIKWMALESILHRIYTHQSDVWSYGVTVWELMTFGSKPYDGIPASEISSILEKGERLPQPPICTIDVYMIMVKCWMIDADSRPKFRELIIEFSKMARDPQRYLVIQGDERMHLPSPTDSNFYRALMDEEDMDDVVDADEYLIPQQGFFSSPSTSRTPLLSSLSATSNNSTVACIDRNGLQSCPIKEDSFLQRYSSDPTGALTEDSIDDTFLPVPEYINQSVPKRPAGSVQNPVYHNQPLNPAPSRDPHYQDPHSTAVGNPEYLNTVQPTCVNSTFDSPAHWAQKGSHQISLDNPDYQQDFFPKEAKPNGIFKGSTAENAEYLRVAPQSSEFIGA
Experimental: Baculoviral expression vectors including pBlueBacHis2B and pFASTBacHTc were used
5ʹ upstream to the EGFR sequence comprised a sequence that encoded (His)6. Sf-9 cells were infected for 72h for protein expression. The pellets of Sf-9 cells were solubilized in a buffer containing sodium vanadate (100 μM), aprotinin (10 μg/mL), triton (1%), HEPES buffer(50mM), ammonium molybdate (10 μM), benzamidine HCl (16 μg/mL), NaCl (10 mM),leupeptin (10 μg/mL) and pepstatin (10 μg/mL) at 0°C for 20 min at pH 7.4, followed by centrifugation for 20 min. To eliminate the nonspecifically bound material, a Ni-NTA super flow packed column was used to pass through and wash the crude extract supernatant first with 10mM and then with 100 mM imidazole. Histidine-linked proteins were first eluted with 250 and then with 500 mM imidazole subsequent to dialysis against NaCl (50 mM), HEPES (20 mM), glycerol (10%) and 1 μg/mL each of aprotinin, leupeptin and pepstatin for 120 min. The purification was performed either at 4 °C or on ice. To record autophosphorylation level, EGFR kinase assay was carried out on the basis of DELFIA/Time-Resolved Fluorometry. The compounds were first
dissolved in DMSO absolute, subsequent to dilution to appropriate concentration using HEPES
(25 mM) at pH 7.4. Each compound (10 μL) was incubated with recombinant enzyme (10 μL, 5
ng for EGFR, 1:80 dilution in 100 mM HEPES) for 10 min at 25 °C, subsequent to the addition of
5X buffer (10 μL, containing 2 mM MnCl2, 100 μM Na3VO4, 20 mM HEPES and 1 mM DTT)
and ATP-MgCl2 (20 μL, containing 0.1 mM ATP and 50 mM MgCl2) and incubation for 1h. The
negative and positive controls were included in each plate by the incubation of enzyme either with
or without ATP-MgCl2. The liquid was removed after incubation and the plates were washed
thrice using a wash buffer. The Europium-tagged antiphosphotyrosine antibody (75 μL, 400 ng)
as §9, §10, §11
calculated. The majority of signals detected by antiphosphotyrosine antibody were from EGFR because the enzyme preparation contained low impurities.

Chain of VEGFR-2 (P35968 20-1356): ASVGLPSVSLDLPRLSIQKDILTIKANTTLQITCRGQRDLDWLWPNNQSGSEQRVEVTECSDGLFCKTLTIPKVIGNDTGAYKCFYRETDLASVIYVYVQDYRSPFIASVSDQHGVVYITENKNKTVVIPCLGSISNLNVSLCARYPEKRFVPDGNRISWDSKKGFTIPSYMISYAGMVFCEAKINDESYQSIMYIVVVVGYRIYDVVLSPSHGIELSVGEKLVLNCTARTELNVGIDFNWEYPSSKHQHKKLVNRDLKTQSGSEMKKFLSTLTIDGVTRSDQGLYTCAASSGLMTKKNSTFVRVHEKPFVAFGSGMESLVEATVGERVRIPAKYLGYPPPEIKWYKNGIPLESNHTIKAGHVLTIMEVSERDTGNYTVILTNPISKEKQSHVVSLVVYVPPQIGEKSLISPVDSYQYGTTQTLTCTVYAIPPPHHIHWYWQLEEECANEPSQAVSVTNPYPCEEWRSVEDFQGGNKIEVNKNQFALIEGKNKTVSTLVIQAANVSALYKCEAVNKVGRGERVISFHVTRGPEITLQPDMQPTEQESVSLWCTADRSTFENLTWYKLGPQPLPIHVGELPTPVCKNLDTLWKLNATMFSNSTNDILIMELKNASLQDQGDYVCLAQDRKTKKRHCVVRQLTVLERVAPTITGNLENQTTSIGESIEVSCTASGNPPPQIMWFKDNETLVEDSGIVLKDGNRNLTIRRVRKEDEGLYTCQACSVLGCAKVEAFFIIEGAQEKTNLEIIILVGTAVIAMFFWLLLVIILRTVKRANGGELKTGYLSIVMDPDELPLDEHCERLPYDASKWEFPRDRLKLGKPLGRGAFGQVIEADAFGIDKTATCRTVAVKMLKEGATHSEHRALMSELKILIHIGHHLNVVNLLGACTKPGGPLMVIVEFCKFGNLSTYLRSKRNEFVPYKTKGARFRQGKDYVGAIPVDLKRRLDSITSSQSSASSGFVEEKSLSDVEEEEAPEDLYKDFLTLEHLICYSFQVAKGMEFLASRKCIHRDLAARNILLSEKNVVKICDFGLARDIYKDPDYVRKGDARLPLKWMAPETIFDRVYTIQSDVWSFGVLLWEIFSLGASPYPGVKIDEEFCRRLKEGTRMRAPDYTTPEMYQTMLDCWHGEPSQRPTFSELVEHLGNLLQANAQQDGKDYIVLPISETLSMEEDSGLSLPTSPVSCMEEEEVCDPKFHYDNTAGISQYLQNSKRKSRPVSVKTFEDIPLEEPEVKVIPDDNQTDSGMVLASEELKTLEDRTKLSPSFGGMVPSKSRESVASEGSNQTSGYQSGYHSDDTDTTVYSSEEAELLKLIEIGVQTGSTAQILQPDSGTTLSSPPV

Row | Compound | GI50 [1] | IC50 (VEGFR-2) | IC50 (A-549 cells) | remaining activity at 1 µM (E. coli DNA gyrase) | IC50 (Panc-1 cells) | IC50 (MCF-7 cells) | IC50 (HT-29 cells) | viability at 96 h, 50 µM (in vitro) | IC50 (EGFR) | IC50 (E. coli DNA gyrase) | also measured
1 | O=C(O)c1cn(C2CC2)c2cc(N3CCNCC3)c(F)cc2c1=O [Ciprofloxacin, reference compound] |  |  |  |  |  |  |  |  |  |  | MIC (S. aureus): 0.03 ± 0.002 µM (≈ 0.00994 µg/mL); MIC (P. aeruginosa): 0.06 ± 0.004 µM (≈ 0.0199 µg/mL); MIC (E. coli): 0.06 ± 0.004 µM (≈ 0.0199 µg/mL); MIC (B. subtilis): 0.01 µM (≈ 0.00331 µg/mL); Minimum inhibitory concentration (MIC), B. subtilis (B. subtilis): 0.01 ± 0.001 µM (≈ 0.00331 µg/mL)
2 | Cc1nc(SCC(=O)c2cc3ccccc3oc2=O)sc1C(=O)/C=C/c1ccccc1 [Compound 11a, (E)-3-(2-((5-Cinnamoyl-4-methylthiazol-2-yl)thio)acetyl)-2H-chromen-2-one] | 44 nM | 5200 ± 30 nM | 40 ± 2 nM | 72% | 44 ± 3 nM | 48 ± 3 nM | 44 ± 3 nM | 91% | 93 ± 4 nM |  | 
3 | Cc1nc(SCC(=O)c2cc3ccccc3oc2=O)sc1C(=O)/C=C/c1ccc(Cl)cc1 [Compound 11b, (E)-3-(2-((5-(3-(4-Chlorophenyl)acryloyl)-4-methylthiazol-2-yl)thio)acetyl)-2H-chromen-2-one] | 71 nM |  | 69 ± 6 nM |  | 70 ± 6 nM | 74 ± 6 nM | 72 ± 6 nM | 92% |  | 182 ± 13 nM | Fold less effective than novobiocin (DNA gyrase IC50) (E. coli DNA gyrase): 1.1 fold; Minimum inhibitory concentration (MIC), S. aureus (S. aureus): 0.023 ± 0.001 µM (≈ 0.0111 µg/mL); MIC (S. aureus): 0.023 µM (≈ 0.0111 µg/mL); Minimum inhibitory concentration (MIC), P. aeruginosa (P. aeruginosa): 0.045 ± 0.003 µM (≈ 0.0217 µg/mL); MIC (P. aeruginosa): 0.045 µM (≈ 0.0217 µg/mL); MIC (E. coli): 0.042 µM (≈ 0.0202 µg/mL); Minimum inhibitory concentration (MIC), E. coli (E. coli): 0.042 ± 0.003 µM (≈ 0.0202 µg/mL); Fold less efficient than ciprofloxacin (MIC), B. subtilis (B. subtilis): 1.8 fold; MIC (B. subtilis): 0.018 µM (≈ 0.00868 µg/mL); Minimum inhibitory concentration (MIC), B. subtilis (B. subtilis): 0.018 ± 0.001 µM (≈ 0.00868 µg/mL)
4 | Cc1nc(SCC(=O)c2cc3cc(Br)ccc3oc2=O)sc1C(=O)/C=C/c1ccccc1 [Compound 11d, (E)-6-Bromo-3-(2-((5-cinnamoyl-4-methylthiazol-2-yl)thio)acetyl)-2H-chromen-2-one] | 30 nM | 3600 ± 20 nM | 28 ± 1 nM | 54% | 30 ± 1 nM | 31 ± 1 nM | 30 ± 1 nM | 95% | 76 ± 3 nM |  | Fold less potent than compound 11f (GI50) [1]: 1.1 fold
5 | COc1ccc(/C=C/C(=O)c2sc(SCC(=O)c3cc4cc(Br)ccc4oc3=O)nc2C)cc1 [Compound 11f, (E)-6-Bromo-3-(2-((5-(3-(4-methoxyphenyl)acryloyl)-4-methylthiazol-2-yl)thio)acetyl)-2H-chromen-2-one] | 27 nM | 2900 ± 10 nM | 25 ± 1 nM | 71% | 26 ± 1 nM | 29 ± 1 nM | 28 ± 1 nM | 93% | 71 ± 3 nM |  | Fold more active than erlotinib (GI50) ([1]; four cancer cell lines): 1.2 fold; Fold more potent than erlotinib (IC50), A-549 (A-549 cells; A-549): 1.2 fold; Fold more potent than erlotinib (IC50), MCF-7 (MCF-7 cells; MCF-7): 1.4 fold
6 | Cc1nc(SCC(=O)c2cc3ccccc3o2)sc1C(=O)/C=C/c1ccccc1 [Compound 12a, (E)-1-(2-((2-(Benzofuran-2-yl)-2-oxoethyl)thio)-4-methylthiazol-5-yl)-3-phenylprop-2-en-1-one] | 67 nM |  | 65 ± 5 nM | 61% | 66 ± 5 nM | 70 ± 5 nM | 66 ± 5 nM | 93% |  |  | 
7 | Cc1nc(SCC(=O)c2cc3ccccc3o2)sc1C(=O)/C=C/c1ccc(Cl)cc1 [Compound 12b, (E)-1-(2-((2-(Benzofuran-2-yl)-2-oxoethyl)thio)-4-methylthiazol-5-yl)-3-(4-chlorophenyl)prop-2-en-1-one] | 65 nM |  | 61 ± 5 nM |  | 64 ± 5 nM | 68 ± 5 nM | 65 ± 5 nM | 90% |  | 197 ± 12 nM | MIC (S. aureus): 0.034 ± 0.002 µM (≈ 0.0154 µg/mL); MIC (P. aeruginosa): 0.064 ± 0.004 µM (≈ 0.0291 µg/mL); MIC (E. coli): 0.062 ± 0.004 µM (≈ 0.0281 µg/mL); MIC (B. subtilis): 0.029 ± 0.001 µM (≈ 0.0132 µg/mL)
8 | COc1ccc(/C=C/C(=O)c2sc(SCC(=O)c3cc4ccccc4o3)nc2C)cc1 [Compound 12c, (E)-1-(2-((2-(Benzofuran-2-yl)-2-oxoethyl)thio)-4-methylthiazol-5-yl)-3-(4-methoxyphenyl)prop-2-en-1-one] | 36 nM | 4050 ± 20 nM | 33 ± 2 nM | 59% | 36 ± 2 nM | 39 ± 2 nM | 37 ± 2 nM | 91% | 83 ± 3 nM |  | 
9 | Cc1nc(SCC(=O)c2cc3cc(Br)ccc3o2)sc1C(=O)/C=C/c1ccccc1 [Compound 12d, (E)-1-(2-((2-(5-Bromobenzofuran-2-yl)-2-oxoethyl)thio)-4-methylthiazol-5-yl)-3-phenylprop-2-en-1-one] | 48 nM |  | 45 ± 3 nM | 65% | 48 ± 3 nM | 50 ± 3 nM | 48 ± 3 nM | 90% |  |  | Fold less effective than 11d (GI50) [1]: 1.6 fold
10 | Cc1nc(SCC(=O)c2cc3cc(Br)ccc3o2)sc1C(=O)/C=C/c1ccc(Cl)cc1 [Compound 12e, (E)-1-(2-((2-(5-bromobenzofuran-2-yl)-2-oxoethyl)thio)-4-methylthiazol-5-yl)-3-(4-chlorophenyl)prop-2-en-1-one] | 62 nM |  | 60 ± 5 nM |  | 62 ± 5 nM | 64 ± 5 nM | 62 ± 5 nM | 94% |  | 217 ± 15 nM | Fold less efficient than 11e (GI50) [1]: 1.5 fold; Fold less effective than compound 11b (DNA gyrase IC50) (E. coli DNA gyrase): approximately 1.2 fold
11 | COc1ccc(/C=C/C(=O)c2sc(SCC(=O)c3cc4cc(Br)ccc4o3)nc2C)cc1 [Compound 12f, (E)-1-(2-((2-(5-Bromobenzofuran-2-yl)-2-oxoethyl)thio)-4-methylthiazol-5-yl)-3-(4-methoxyphenyl)prop-2-en-1-one] | 57 nM |  | 55 ± 4 nM |  | 56 ± 4 nM | 59 ± 4 nM | 56 ± 4 nM | 92% |  | 208 ± 15 nM | Fold less potent than compound 11f (GI50) [1]: 2.1 fold; Fold less effective than compound 11b (DNA gyrase IC50) (E. coli DNA gyrase): approximately 1.2 fold
12 | C#Cc1cccc(Nc2ncnc3cc(OCCOC)c(OCCOC)cc23)c1 [Erlotinib, reference compound] |  |  | 30 ± 3 nM |  | 30 ± 3 nM | 40 ± 3 nM | 30 ± 3 nM |  |  |  | 
